Source: ChEMBL document CHEMBL1123826, “Nitrogen bridgehead compounds. 66. Bronchodilator nitrogen bridgehead compounds with a pyrimidinone moiety” (J Med Chem, 1987)

How the values were obtained:
Type in all cases: functional
Cavia porcellus [1] = organism: Cavia porcellus; experiment: Bronchodilator activity against acetylcholine-induced spasm in guinea pig; details: read-out: ID50 (the source's name)
Cavia porcellus [2] = organism: Cavia porcellus; experiment: Bronchodilator activity against histamine-induced spasm in guinea pig; details: read-out: ID50 (the source's name)
Cavia porcellus [3] = organism: Cavia porcellus; experiment: Bronchodilator activity against serotonin-induced spasm in guinea pig; details: read-out: ID50 (the source's name)
[4] = Relative potency is ratio of IC50 of theophylline / IC50 was determined
Homo sapiens = organism: Homo sapiens; experiment: Compound was tested for Bronchodilator activity against isolated human bronchus contracted by carbachol
[5] = Homo sapiens, Bronchus, read-out: IC50

SMILES | ED50 (Cavia porcellus [1]) [µmol/kg] | ED50 (Cavia porcellus [2]) [µmol/kg] | ED50 (Cavia porcellus [3]) [µmol/kg] | Relative potency [4] | IC50 (Homo sapiens; [5]) [µM] | IC50 (Homo sapiens) [uM l-1]
CC1CCc2nc3c(c(=O)n2C1)CCCC3 (configuration not stated) | 28.9 | 23.6 | 38.1 |  |  | 
Cc1ccn2c(=O)c3c(nc2c1)CCC3 | 29.6 | 15.7 | 22.6 |  |  | 
O=c1c2ccccc2nc2n1CCCCCC2 | 61.8 | 61.8 | > 100 |  |  | 
CC1CCCc2nc3ccccc3c(=O)n21 (configuration not stated) | > 100 | 27 | 30.2 |  |  | 
CC1CCCc2nc3c(c(=O)n21)CCC3 (configuration not stated) | 18.2 | 11.7 | 13.8 |  |  | 
O=C(O)c1ccc2c(=O)n3c(nc2c1)CCCC3 | > 100 | > 100 | > 100 |  |  | 
O=c1c2c(nc3n1CCC3)CCCCCC2 | 100 | 164 | 57.1 |  |  | 
CC1CCn2c(nc3c(c2=O)CCCC3)C1 (configuration not stated) | 29.9 | 25.7 | 39.3 |  |  | 
CC1CCCc2nc3c(c(=O)n21)CCCC3 (configuration not stated) | 20.3 | 24.7 | 14 |  |  | 
O=C(O)c1ccc2c(=O)n3c(nc2c1)CCCCC3 | > 100 | > 100 | > 100 |  |  | 
O=c1c2c(nc3n1CCCC3)CCC2 | 23.7 | 25.7 | 24.1 |  |  | 
O=c1c2c(nc3n1CCC3)CCCCC2 | 38.5 | 27.6 | 33 |  |  | 
Cc1cccn2c(=O)c3c(nc12)CCC3 | 21.6 | 10.2 | 11.2 | 1.54 | 97.7 | 
COc1ccccc1.Cn1c(=O)c2nc[nH]c2n(C)c1=O | 22 | 10 | 10 | 1 |  | 151
CCc1c(C)nc2ccccn2c1=O.Cl | 29.4 | 8.6 | 12 | 1.19 |  | 127
O=C(O)c1ccc2nc3n(c(=O)c2c1)CCCCC3 | > 100 | > 100 | > 100 |  |  | 
O=c1c2c(nc3n1CCC3)CCC2 | > 100 | 46.1 | 82.5 |  |  | 
Cc1cccc2nc3c(c(=O)n12)CCCC3 | 10 | 9.7 | 6.1 |  |  | 
O=c1nc2n(c3c1CCC3)CCC2 | > 100 | > 100 | > 100 |  |  | 
Cc1cccn2c(=O)c3c(nc12)CCCCCC3 | 42.6 | 23.8 | 14.3 |  |  | 
CCc1c(C)nc2cccc(C)n2c1=O | 25.6 | 10.2 | 9.6 | 2.1 | 71.8 | 

SMILES | ED50 (Cavia porcellus [1]) [µmol/kg] | ED50 (Cavia porcellus [2]) [µmol/kg] | ED50 (Cavia porcellus [3]) [µmol/kg] | Relative potency [4] | IC50 (Homo sapiens; [5]) [µM] | IC50 (Homo sapiens) [uM l-1]
O=C(O)c1ccc2nc3n(c(=O)c2c1)CCC3 | > 100 | 215 | > 100 |  |  | 
CC1CCc2nc3c(c(=O)n2C1)CCC3 (configuration not stated) | 17.6 | 7.2 | 39.6 |  |  | 
Cc1cccc2nc3c(c(=O)n12)CCC3 | 29.3 | 7.2 | 4.3 |  |  | 
O=C(O)c1ccc2c(=O)n3c(nc2c1)CCC3 | > 100 | > 100 | > 100 |  |  | 
O=c1c2ccccc2nc2n1CCCC2 | 31.1 | 11.1 | 15.2 |  |  | 
O=C(O)c1ccc2nc3n(c(=O)c2c1)CCCC3 | > 100 | > 100 | > 100 |  |  | 
COC(=O)c1ccc2nc3n(c(=O)c2c1)CCC3 | 44.1 | 27 | 11.7 |  |  | 
O=c1c2c(nc3n1CCCCC3)CCCC2 |  | 3 | 3 |  |  | 
Cc1ccc2c(=O)n3c(nc2c1)CCCCC3 | 76 | 25.6 | 39.4 |  |  | 
Cc1ccn2c(=O)c3c(nc2c1)CCCC3 | 37.7 | 20.4 | 21.9 |  |  | 
O=c1nc2n(c3c1CCCC3)CCC2 | > 100 | > 100 | 107 |  |  | 
Cc1ccc2nc3c(c(=O)n2c1)CCC3 | 29.1 | 29.2 | 14.4 |  |  | 
CC1CCn2c1nc1ccccc1c2=O (configuration not stated) | 45.8 | 27.3 | 29.4 |  |  | 
CC1CCc2nc3c(c(=O)n21)CCCC3 (configuration not stated) | 74.6 | 19.7 | 46.8 |  |  | 
O=c1c2c(nc3n1CCCCC3)CCCCCC2 | 2.26 | 33 | > 100 |  |  | 
O=c1c2ccccc2nc2n1CCC2 | 37.7 | 16.9 | 21.2 |  |  | 
Cl.O=c1c2c(nc3ccccn13)CCC2 | 32.4 | 10.5 | 17.6 | 0.17 |  | 879
CC1CCc2nc3ccccc3c(=O)n21 (configuration not stated) | 48.2 | 10.4 | 12.2 |  |  | 
S=c1c2c(nc3n1CCCCC3)CCC2 | > 320 | > 320 | > 320 |  |  | 
COC(=O)c1ccc2nc3n(c(=O)c2c1)CCCC3 | > 32 | 16.8 | 12.3 |  |  | 
O=c1c2c(nc3n1CCCC3)CCCCC2 | 11.8 | 15.2 | 12.7 |  |  | 

SMILES | ED50 (Cavia porcellus [1]) [µmol/kg] | ED50 (Cavia porcellus [2]) [µmol/kg] | ED50 (Cavia porcellus [3]) [µmol/kg] | Relative potency [4] | IC50 (Homo sapiens; [5]) [µM] | IC50 (Homo sapiens) [uM l-1]
O=c1c2c(nc3n1CCCCCC3)CCCC2 | 58.5 | 27.1 | 44.6 |  |  | 
CCc1c(C)nc2cc(C)ccn2c1=O | 36.7 | 20.9 | 29.7 |  |  | 
CCOC(=O)c1ccc2c(=O)n3c(nc2c1)CCCC3 | > 32 | 15.1 | > 32 |  |  | 
CCc1c(C)nc2c(C)cccn2c1=O | 36.4 | 5.1 | 12.3 |  |  | 
CCOC(=O)c1ccc2c(=O)n3c(nc2c1)CCC3 | > 32 | 14.4 | > 32 |  |  | 
O=c1c2c(nc3n1CCCC3)CCCC2 | 44.5 | 22 | 33.3 |  |  | 
O=c1nc2n(c3c1CCCC3)CCCCC2 | > 32 | > 32 | 55.1 |  |  | 
O=c1c2cc3c(cc2nc2n1CCCCC2)OCO3 | 22.7 | > 32 | 13.1 |  |  | 
O=c1c2c(nc3ccccn13)CCCCCC2 | 53.3 | 32.7 | 49 |  |  | 
Cc1ccc2nc3n(c(=O)c2c1)CCCCC3 | 16 | 25.3 | 44.7 |  |  | 
Cc1ccc2nc3c(c(=O)n2c1)CCCC3 | 32 | 15.6 | 20.4 |  |  | 
Cc1ccc2nc3n(c(=O)c2c1)CCC3 | 29 | 29.8 | 11.3 |  |  | 
O=c1c2c(nc3n1CCC3)CCCC2 | 51.1 | 24.1 | 29.8 |  |  | 
S=c1c2c(nc3n1CCCCC3)CCCC2 | > 320 | > 320 | > 320 |  |  | 
CC1CCCn2c1nc1c(c2=O)CCC1 (configuration not stated) | 12.8 | 11.5 | 7.7 |  |  | 
CC1CCCn2c1nc1c(c2=O)CCCC1 (configuration not stated) | 47.1 | 19.8 | 36.2 |  |  | 
Cl.O=c1c2c(nc3ccccn13)CCCC2 | 18.2 | 6.1 | 16.7 | 1.18 |  | 127
O=c1c2c(nc3n1CCCCC3)CCCCC2 | 7.2 | 33.8 | 30.8 |  |  | 
CCc1c(C)nc2ccc(C)cn2c1=O | 24 | 12.4 | 16.6 |  |  | 
CCOC(=O)c1c[n+](C)c2n(c1=O)C(C)CCC2 (configuration not stated) [RIMAZOLIUM METILSULFATE] | 31 | 8 | 14 |  |  | 
